The values that follow come from US20230201550A1, “SYSTEMS AND METHODS FOR TREATING PERSISTENT PAIN OF NEUROGENIC ORIGIN AND COMPLEX INJURY” (Nova Neura, LLC, priority 2020, published 2023).

System in the first data set: not listed separately
The experiment in a line: Stability and crystallization of the topical composition.
Conditions: not given
It counts as physicochemical. The source says:
Through experimentation it was discovered that a combination of sugars (e.g. mannitol with dextrose) with or without the addition of corn syrup (also known as glucose-fructose) would impede or completely eliminate the crystallization process, allowing for a higher concentration of these ingredients in solution.
With `OCC(O)CO` [Glycerin], the “stability in solution / of the formula, shelf-life” value was “highly effective stabilizing measure”.

Staying with this data set, now noted: winter temperatures or refrigerator; combination of sugars.
Turning to `OC[C@@H](O)[C@@H](O)[C@H](O)[C@H](O)CO` [Mannitol, reference compound], the “crystallization of Mannitol in cold environments” value was “significantly mitigated or eliminated”.

A further data set deals with rabbit ear.
Experiment: not given
Particulars: rating out of 5 (x/5); cited from earlier work.
Consider `O=C1CC[C@@H](C(=O)[O-])N1.[Na+]` [Sodium PCA, sodium L-pyroglutamate], for which the comedogenicity is recorded as 0/5. Turning to `CC12CCC(CC1=O)C2(C)C` (centres unmarked) [camphor, reference compound], the comedogenicity is 2/5. `CCCCCCCCCCCCCCCCCCO` [cetearyl alcohol]: the comedogenicity is listed as 4/5. Take `CCCCCCCCCCCCCCCCCC(=O)OCC(O)CO` (centres unmarked) [glyceryl stearate]: the comedogenicity is 3/5. As to `CCCCCCCCCCCCCC(=O)OC(C)C` [isopropyl myristate], the comedogenicity is 5/5. With `CCCCCCCCCCCCCCCC(=O)OCCCCCCCC` [octyl palmitate], the comedogenicity is listed as 4/5. As for `CC(C)=CCC/C(C)=C/CC/C(C)=C/CC/C=C(\C)CC/C=C(\C)CCC=C(C)C` [squalene], the comedogenicity is reported as 1/5. On to caprylic/capric triglyceride, for which the comedogenicity is 0/5. As to cyclomethicone, the comedogenicity was 0/5.
